Like-named read-outs stand apart in the source and are kept apart here.

Assay [1] relates to liver-stage P. berghei parasites (Pbluc). Description: Liver-stage P. berghei assay (Pbluc). To be noted: Plasmodium berghei. In kind it is cell-based.
The subject of assay [2] is HepG2 cells. Put plainly: HepG2 cytotoxicity. The assay is classed as cell-based. To be noted: Homo sapiens, mammalian cell cytotoxicity.
Assay [3] has as its system P. falciparum control YFP cKD line. Put plainly: cKD compound susceptibility assay, control YFP cKD line. In kind it is cell-based. To be noted: Plasmodium falciparum. How it is done:
Synchronous ring-stage, aptamer-regulated PfAcAS and control parasite lines were resuspended in varying aTc concentrations (high = 50 nM, low = 1 nM, and no aTc) and distributed into the drug plate. DMSO carrier and chloroquine (200 nM) wells served as positive and negative controls.

In assay [4] the target is T1, PfAcAS A597V (Plasmodium falciparum, UniProt C6KTB4, A597V).
T1 sequence (C6KTB4 1-997 A597V): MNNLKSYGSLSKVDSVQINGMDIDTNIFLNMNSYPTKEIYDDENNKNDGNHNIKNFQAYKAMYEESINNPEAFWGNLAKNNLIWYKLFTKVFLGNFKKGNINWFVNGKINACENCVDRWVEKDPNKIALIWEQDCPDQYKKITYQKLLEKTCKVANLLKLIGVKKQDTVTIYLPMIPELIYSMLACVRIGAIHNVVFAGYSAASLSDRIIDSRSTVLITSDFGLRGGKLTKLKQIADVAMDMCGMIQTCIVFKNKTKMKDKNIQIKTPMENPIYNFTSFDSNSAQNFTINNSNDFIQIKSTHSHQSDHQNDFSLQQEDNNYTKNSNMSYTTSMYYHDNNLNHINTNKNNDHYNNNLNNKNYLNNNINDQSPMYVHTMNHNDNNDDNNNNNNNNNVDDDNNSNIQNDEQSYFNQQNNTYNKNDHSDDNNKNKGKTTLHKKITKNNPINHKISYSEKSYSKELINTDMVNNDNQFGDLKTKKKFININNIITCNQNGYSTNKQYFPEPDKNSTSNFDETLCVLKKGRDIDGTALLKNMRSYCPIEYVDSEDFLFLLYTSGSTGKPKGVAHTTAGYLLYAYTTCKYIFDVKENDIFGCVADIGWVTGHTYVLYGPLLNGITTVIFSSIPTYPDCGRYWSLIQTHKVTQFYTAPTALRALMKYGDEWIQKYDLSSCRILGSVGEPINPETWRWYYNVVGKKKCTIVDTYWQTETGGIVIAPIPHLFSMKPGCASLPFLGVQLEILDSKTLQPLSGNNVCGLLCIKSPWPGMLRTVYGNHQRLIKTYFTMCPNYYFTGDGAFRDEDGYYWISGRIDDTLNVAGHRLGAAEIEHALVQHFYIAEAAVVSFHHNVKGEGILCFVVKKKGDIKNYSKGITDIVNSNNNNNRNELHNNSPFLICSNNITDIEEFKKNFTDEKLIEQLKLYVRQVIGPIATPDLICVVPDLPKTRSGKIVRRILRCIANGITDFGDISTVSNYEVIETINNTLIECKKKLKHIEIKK
Description: EnzChek assay, recombinant PfAcAS A597V. The assay is classed as biochemical, P. falciparum. How it is done:
Steady-state kinetic measurements were conducted at room temperature using a PheraStar plate reader (BMG). The first step of the reaction of PfAcAS, which produces inorganic pyrophosphate (PPi) that is converted to two molecules of inorganic phosphate using a pyrophosphatase enzyme, was continuously monitored using the EnzChek Phosphate Assay Kit, which gives an absorbance readout at 360 nm (Figure 4A) ([Webb, 1992]). […] By adding CoA, the reaction rapidly proceeds to the second step resulting in further release of pyrophosphate, making the EnzChek assay a suitable option to continuously monitor the activity of PfAcAS. Typical kinetic assays were carried out in clear, flat-bottom, polystyrene, 384-well plates (Greiner) in an 80 μL reaction volume containing 100 mM HEPES (pH7.4), 100 mM NaCl, 250 mM KCl, 50 mM MgCl2, 1 mM DTT, 0.004% Tween 20, 0.5 U/mL pyrophosphatase, 0.1 mM MESG, 0.5 U/mL PNP, 2 mM ATP, 2 mM acetate, 0.5 mM CoA and 5 nM recombinant PfAcAS WT or 10 nM recombinant PfAcAS A597V or T648M. Assays were performed by adding 40 μL of a 2-times concentrated substrate mixture including MESG to all wells, and the reactions started by adding 40 μL of a 2-times concentrated reaction mixture containing all other components. The reactions were carried out for 2 to 4 hr with absorbance readings at 360 nm every two to four minutes. Reaction rates were extracted from the linear phase of activity, usually using 10 to 20 points between times of 30 and 100 min of the reactions. Using a phosphate standard curve obtained under the same buffer conditions used for the PfAcAS reactions (Figure S5A), the rates were then converted to velocity per second, conversion of one nanomolar of phosphate, per nanomolar of enzyme, per second. The substrates Km values were determined by varying the concentration of one of the substrates at saturating concentration of the other two substrates. Steady-state data were fitted using the nonlinear, least-squares, curve-fitting programs of Sigma-Plot for Windows, version 14.0. Individual saturation curves were fit to Equation 1(Equation 1) v=VS/K+S where V is the maximal velocity, S is the substrate concentration and K is the Michaelis constant for the substrate (Km). Individual saturation curves displaying substrate inhibition were fit to Equation 2(Equation 2) v=VS/K+S×(1+S/Ks) where Ks is the substrate inhibition constant.
To determine the steady-state inhibition parameters and patterns associated with both inhibitors, PfAcAS activity was studied in the presence of variable concentrations of one substrate, ATP, acetate or CoA, fixed saturating concentration of the other two substrates (acetate and CoA, ATP and CoA, or ATP and acetate) and several fixed concentrations of inhibitor. Assay ready plates containing different concentrations of inhibitor were prepared using an Echo 550 acoustic dispenser (Labcyte Inc.). The assays were carried out as described in the previous section. […] For better comparison between both inhibitors and proteins, the ymin was fixed to zero and the ymax to 100. Inhibition data showing linear, competitive patterns in double-reciprocal plots were fit to Equation 4(Equation 4) v=VS/K(1+I/Ki)+S where Ki is the dissociation constant for the enzyme-inhibitor complex. Inhibition data showing linear, mixed inhibition patterns in double-reciprocal plots were fit to Equation 5(Equation 5) v=VS/K(1+I/Kis)+S(1+I/Kii) where Kis is the dissociation constant for the free enzyme-inhibitor complex and Kii is the dissociation constant for the enzyme-substrate-inhibitor complex. Inhibition data showing linear, uncompetitive patterns in double-reciprocal plots were fit to Equation 6(Equation 6) v=VS/K+S(1+I/Ki)

The subject of assay [5] is histone acetylation in P. falciparum 3D7-T648M. Description: Histone acetylation Western blot, drug-selected 3D7-T648M. In kind it is cell-based. The settings on record: trophozoites, 3 h exposure. In general terms: Immunoblotting shows a protein as a band on a membrane.
Description: Synchronous trophozoite-stage (24-32hr post-invasion) cultures at 3–5% parasitemia and 2% hematocrit in complete medium were exposed to test compounds for 3 hr at 37°C. […] DMSO was tested at 0.1% as the vehicle-only control. Following drug exposure, parasites were isolated via saponin lysis ice-cold 0.1% saponin in phosphate-buffered saline (PBS). Isolated parasites were washed 3x in ice-cold PBS containing protease inhibitor cocktail (cOmplete mini, Roche) and lysed in 1x Laemmli Sample Buffer (Biorad) with 5% beta-mercaptoethanol (Sigma-Aldrich). Samples were heated at 99°C for 10 min before centrifugation. Equal quantities of solute were separated on Protean TGX Precast Gels (4–20% gradient) in Tris-SDS-glycine buffer, transferred to nitrocellulose membrane by iblot (Invitrogen), and blocked for 1h in tris-buffered saline (TBS) with 5% skim milk powder. Blocked membranes were probed with antibodies recognising tetra-acetylated H4 (H4ac4, Sigma-Aldrich 06–866), H4K8ac (CST #2594), H3K9ac (CST #9649) or H3 (CST #4499), at 1:1000 dilution, and PfBiP ([Shonhai et al., 2007]) (at 1:5000 dilution) in 3% milk powder TBS with 0.1% Tween 20 at 4°C overnight and with 800CW goat α-rabbit IgG (Licor) at 1:10,000 dilution. Membranes were visualised using a Licor Odyssey CLX imaging system and quantified using ImageJ.
Where [6] appears, read: read-out: control cKD EC50 ± SD (nM) (0nM aTc).
Where [7] appears, read: read-out: control cKD EC50 ± SD (nM) (50nM aTc).

A word on the EC50: it is the midpoint of the concentration-response curve. Broadly, the IC50 is the concentration that gives 50% inhibition. In the case of `CCN(CC)S(=O)(=O)c1ccc(Cl)c(C(=O)Nc2ccc3nc(C)sc3c2)c1` [MMV019721], the EC50 in assay [1] was 2100 nM; in assay [2], above 50000 nM; in assay [3] (setting [6]) it was 200 ± 61 nM; in assay [3] (setting [7]) it was 210 ± 80 nM. Besides, the “Hill, AcAS A597V” value in assay [4] is reported as 0.58 ± 0.05. Moreover, in assay [4], the IC50 was found to be 6900 ± 1200 nM. Further, the “histone acetylation in 3D7-T648M parasite line” value in assay [5] was “little to no measurable effect”.
Regarding `O=C(NNC(=O)c1csnn1)c1ccc(Cl)cc1` [MMV084978], the EC50 in assay [1] was 520 ± 210 nM; in assay [2], above 50000 nM; in assay [3] (setting [6]) it was 240 ± 29 nM; in assay [3] (setting [7]), 230 ± 23 nM. Also, in assay [4], the IC50 was above 100000 nM. In assay [5], the “histone acetylation in 3D7-T648M parasite line” value is listed as “protection”.

The values are drawn from paper PMC8878317, “Chemogenomics identifies acetyl-coenzyme A synthetase as a target for malaria treatment and prevention” (Cell Chemical Biology, 2022).
